Test results reported in paper PMC11078990, “Identification and characterization of small molecule inhibitors of the LINE-1 retrotransposon endonuclease” (Nature Communications, 2024).
Several values for one entry are separate records, joined by “and”; a condition that tells them apart may be missing. Equal values may be shown once. Read-outs that look alike come from different tables or passages of the source.

Assays:
[1] = tested on: substrate oligonucleotide used in the EN activity assay; format: binding; design: key to Binding Detected? (Y/N): Binding Detected? (Y/N); Binding Detected? (Y/N)
[2] = tested on: L1 retrotransposition; assay: HeLa dual-luciferase L1 retrotransposition assay; format: cell-based, human
[3] = molecular target: T1, APE1 (Homo sapiens, UniProt P27695); assay: APE1 fluorescent oligonucleotide activity assay (abasic site substrate); format: biochemical; settings: for activity at 25 µM: read-out: APE1 activity (%)
T1 construct: purchased New England Biolabs (NEB) M0282S

[4] = molecular target: L1 EN (LINE-1 retrotransposon endonuclease domain) (Homo sapiens, UniProt O00370, N5T); assay: Fluorescent oligonucleotide EN nicking activity assay; format: biochemical
Sequence of L1 EN (LINE-1 retrotransposon endonuclease domain) (O00370 1-239 N5T): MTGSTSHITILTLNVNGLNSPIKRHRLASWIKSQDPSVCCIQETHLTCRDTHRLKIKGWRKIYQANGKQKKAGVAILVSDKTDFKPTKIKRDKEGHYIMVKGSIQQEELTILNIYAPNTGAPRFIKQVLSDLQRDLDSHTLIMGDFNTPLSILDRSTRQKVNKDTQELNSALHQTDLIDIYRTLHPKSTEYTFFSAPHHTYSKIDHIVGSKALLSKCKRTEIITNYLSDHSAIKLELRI

[5] = tested on: HeLa Tet-On cells; settings: human
[6] = tested on: DNA fragmentation (comet tail length) in HeLa Tet-On cells expressing EN domain; assay: Neutral comet assay, EN domain-only constructs; format: cell-based, human
[7] = read-out: EN activity, percent of no inhibitor control

O=C(CCCCCCCCCCC(=O)Nc1cccc([N+](=O)[O-])c1)Nc1cccc([N+](=O)[O-])c1 [AD11]
Binding Detected? (Y/N) [1]: N | L1 retrotransposition, average [2]: 2.364 and 2.4307 and 2.013 and 1.968 and 2.0024 and 1.896 and 1.695 and 1.484 | Luciferase (retrotransposition), average [2]: 3.993 | Luciferase (retrotransposition), replicates [2]: 4.575 and 4.225 and 3.621 and 3.549 | APE1 percent activity, Replicate 1 [3]: 77.2032% | APE1 percent activity, Replicate 2 [3]: 89.204% | APE1 percent activity, Replicate 3 [3]: 71.7475% | APE1 percent activity, average [3]: 79.3849% | activity at 25 µM [3]: 79.4 ± 8.9% | EN activity, percent of no inhibitor control ([4]; 0.1 µM): 84.764% and 74.2098% | EN activity, percent of no inhibitor control ([4]; 0.5 µM): 87.7394% and 79.0744% | EN activity, percent of no inhibitor control ([4]; 1 µM): 78.4622% and 83.3471% | EN activity, percent of no inhibitor control ([4]; 5 µM): 48.2874% and 49.6964% | EN activity, percent of no inhibitor control ([4]; 25 µM): 8.361% and 7.932% | EN activity, percent of no inhibitor control ([4]; 50 µM): 2.144% and 3.212% | EN activity, percent of no inhibitor control ([4]; 100 µM): 0.8407% and 0.78% and 1.633% | remaining activity at 0.1 µM [4, 7]: 87.2% | remaining activity at 0.5 µM [4, 7]: 73.3% | remaining activity at 1 µM [4, 7]: 78.1% | remaining activity at 5 µM [4, 7]: 54.9% | remaining activity at 25 µM [4, 7]: 6.58% | remaining activity at 50 µM [4, 7]: 2.44% | remaining activity at […] [4, 7]: 65.8% | PrestoBlue (viability), average [5]: 15.84 | Nuclei comet tail length, average (WT = 1) [6]: 0.8117

O=C(NCCCCCCNC(=O)Nc1cccc([N+](=O)[O-])c1)Nc1cccc([N+](=O)[O-])c1 [AD32]
Binding Detected? (Y/N) [1]: N | Effect on L1 retrotransposition [2]: some activity in the retrotransposition assay | Luciferase (retrotransposition), average [2]: 1.01 | Luciferase (retrotransposition), replicates [2]: 1.2931 and 0.8621 and 0.8883 and 0.9964 | APE1 percent activity, Replicate 1 [3]: 105.807% | APE1 percent activity, Replicate 2 [3]: 106.706% | APE1 percent activity, Replicate 3 [3]: 111.118% | APE1 percent activity, average [3]: 107.877% | Percent APE1 activity, average [3]: 120.4% | Percent APE1 activity, replicates [3]: 115.512% and 123.038% and 122.705% | activity at 25 µM [3]: 108 ± 2.8% | EN activity, percent of no inhibitor control ([4]; 1 µM): 89.1778% and 95.2749% | EN activity, percent of no inhibitor control ([4]; 5 µM): 106.426% and 105.894% | EN activity, percent of no inhibitor control ([4]; 20 µM): 107.498% and 97.7763% and 80.1287% | EN activity, percent of no inhibitor control ([4]; 50 µM): 115.028% and 130.021% and 99.6138% | EN activity, percent of no inhibitor control ([4]; 100 µM): 108.576% and 99.1955% | EN activity, percent of no inhibitor control ([4]; 250 µM): 76.4578% and 67.7464% | EN activity, percent of no inhibitor control ([4]; 500 µM): 42.369% and 27.0684% | EN activity, percent of no inhibitor control ([4]; 750 µM): 20.3358% and 21.9713% | EN activity, percent of no inhibitor control ([4]; 1000 µM): 5.092% and 3.166% and 2.499% | remaining activity at 1 µM [4, 7]: 93.7% | remaining activity at 5 µM [4, 7]: 103% | remaining activity at 100 µM [4, 7]: 106% | remaining activity at 250 µM [4, 7]: 71.9% | remaining activity at 500 µM [4, 7]: 46.5% | remaining activity at 750 µM [4, 7]: 20.5% | PrestoBlue (viability), average [5]: 14.98 | Nuclei comet tail length, average (WT = 1) [6]: 0.6103

C/C(=N\Nc1ccc([N+](=O)[O-])cc1[N+](=O)[O-])c1ccc(-n2nncc2C(C)(C)C)cc1 [AD7]
Binding Detected? (Y/N) [1]: N | Effect on L1 retrotransposition [2]: some activity in the retrotransposition assay | Luciferase (retrotransposition), average [2]: 2.314 | Luciferase (retrotransposition), replicates [2]: 2.087 and 1.842 and 2.6465 and 2.682 | APE1 percent activity, Replicate 1 [3]: 123.061% | APE1 percent activity, Replicate 2 [3]: 113.794% | APE1 percent activity, Replicate 3 [3]: 119.588% | APE1 percent activity, average [3]: 118.815% | Percent APE1 activity, average [3]: 103.1% | Percent APE1 activity, replicates [3]: 105.066% and 99.3868% and 104.87% | activity at 25 µM [3]: 119 ± 4.7% | EN activity, percent of no inhibitor control ([4]; 5 µM): 101.994% and 98.1742% and 77.1828% | EN activity, percent of no inhibitor control ([4]; 25 µM): 96.2152% and 94.2464% | EN activity, percent of no inhibitor control ([4]; 50 µM): 105.792% and 87.7855% | EN activity, percent of no inhibitor control ([4]; 100 µM): 94.7448% and 86.2812% | EN activity, percent of no inhibitor control ([4]; 250 µM): 48.1744% and 80.4178% and 71.8348% | EN activity, percent of no inhibitor control ([4]; 500 µM): 47.3691% | EN activity, percent of no inhibitor control ([4]; 750 µM): 44.5063% and 42.7569% | EN activity, percent of no inhibitor control ([4]; 1000 µM): 33.3657% and 34.4723% | EN activity, percent of no inhibitor control ([4]; 1500 µM): 8.772% and 6.335% | remaining activity at 25 µM [4, 7]: 86.8% | remaining activity at 50 µM [4, 7]: 88.2% | remaining activity at 100 µM [4, 7]: 97.9% | remaining activity at 500 µM [4, 7]: 61.3% | remaining activity at 750 µM [4, 7]: 34.4% | remaining activity at 1000 µM [4, 7]: 39.3% | remaining activity at 1500 µM [4, 7]: 7.91% | PrestoBlue (viability), average [5]: 16.01 | Nuclei comet tail length, average (WT = 1) [6]: 0.8142

O=C1c2ccc(Oc3ccc4c(c3)C(=O)N(Nc3ccc([N+](=O)[O-])cc3[N+](=O)[O-])C4=O)cc2C(=O)N1Nc1ccc([N+](=O)[O-])cc1[N+](=O)[O-] [AD13]
Binding Detected? (Y/N) [1]: N | Luciferase (retrotransposition), average [2]: 4.925 | Luciferase (retrotransposition), replicates [2]: 6.1144 and 4.934 and 4.878 and 3.774 | APE1 percent activity, Replicate 1 [3]: 97.407% | APE1 percent activity, Replicate 2 [3]: 88.0071% | APE1 percent activity, Replicate 3 [3]: 67.6438% | APE1 percent activity, average [3]: 84.3526% | activity at 25 µM [3]: 84.4 ± 15.2% | EN activity, percent of no inhibitor control ([4]; 0.5 µM): 119.788% and 111.52% | EN activity, percent of no inhibitor control ([4]; 10 µM): 92.6481% and 80.1764% | EN activity, percent of no inhibitor control ([4]; 25 µM): 33.9668% and 41.2844% | EN activity, percent of no inhibitor control ([4]; 50 µM): 7.541% and 8.862% and 3.766% | EN activity, percent of no inhibitor control ([4]; 100 µM): 1.558% and 1.832% | EN activity, percent of no inhibitor control ([4]; 250 µM): 1.124% and 2.509% and 2.58% | EN activity, percent of no inhibitor control ([4]; 500 µM): 0.9149% and 2.171% and 1.168% | EN activity, percent of no inhibitor control ([4]; 1000 µM): 5.545% and 2.613% and 9.084% | remaining activity at 0.5 µM [4, 7]: 114% | remaining activity at 10 µM [4, 7]: 97.9% | remaining activity at 25 µM [4, 7]: 25.1% | remaining activity at 100 µM [4, 7]: 0.968% | remaining activity at […] [4, 7]: 89.7% | PrestoBlue (viability), average [5]: 12.09

Nn1cnn2c(SCC(=O)Nc3nnc(SCC(=O)Nc4ccc(S(N)(=O)=O)cc4)s3)nnc12 [AD29]
Binding Detected? (Y/N) [1]: N | Luciferase (retrotransposition), average ([2]; Figure 4a Graph 4, 50μM, 0μM average 3.426): 2.638 | Luciferase (retrotransposition), replicates ([2]; Figure 4a Graph 4, 50μM, Replicates 1-4, 0μM average 3.426): 2.47 and 2.591 and 2.484 and 3.007 | APE1 percent activity, Replicate 1 ([3]; compound at 25 μM, Replicate 1): 83.829% | APE1 percent activity, Replicate 2 ([3]; compound at 25 μM, Replicate 2): 79.0708% | APE1 percent activity, Replicate 3 ([3]; compound at 25 μM, Replicate 3): 80.6497% | APE1 percent activity, average ([3]; compound at 25 μM, average of 3 replicates): 81.1831% | activity at 25 µM ([3]; inhibitors at 25 μM, relative to 0 μM inhibitor control, mean ± s.d., 3 independent experiments): 81.2 ± 2.4% | EN activity, percent of no inhibitor control ([4]; [Inhibitor] 0.5 μM, technical replicates 1-3, Fig. 2b source data, 0.5 µM): 96.7352% and 105.013% | remaining activity at 0.5 µM ([4]; [Inhibitor] 0.5 μM, technical replicates 1-3, Fig. 2b source data, read-out: EN activity, percent of no inhibitor control): 97.3% | EN activity, percent of no inhibitor control ([4]; [Inhibitor] 5 μM, technical replicates 1-3, Fig. 2b source data, 5 µM): 89.8647% and 119.947% and 95.1949% | EN activity, percent of no inhibitor control ([4]; [Inhibitor] 10 μM, technical replicates 1-3, Fig. 2b source data, 10 µM): 90.2289% and 93.2039% | remaining activity at 10 µM ([4]; [Inhibitor] 10 μM, technical replicates 1-3, Fig. 2b source data, read-out: EN activity, percent of no inhibitor control): 89.2% | EN activity, percent of no inhibitor control ([4]; [Inhibitor] 25 μM, technical replicates 1-3, Fig. 2b source data, 25 µM): 63.7726% and 70.2623% | remaining activity at 25 µM ([4]; [Inhibitor] 25 μM, technical replicates 1-3, Fig. 2b source data, read-out: EN activity, percent of no inhibitor control): 64.2% | EN activity, percent of no inhibitor control ([4]; [Inhibitor] 50 μM, technical replicates 1-3, Fig. 2b source data, 50 µM): 34.0986% and 27.5313% | remaining activity at 50 µM ([4]; [Inhibitor] 50 μM, technical replicates 1-3, Fig. 2b source data, read-out: EN activity, percent of no inhibitor control): 24.6% | EN activity, percent of no inhibitor control ([4]; [Inhibitor] 100 μM, technical replicates 1-3, Fig. 2b source data, 100 µM): 8.595% and 8.689% | remaining activity at 100 µM ([4]; [Inhibitor] 100 μM, technical replicates 1-3, Fig. 2b source data, read-out: EN activity, percent of no inhibitor control): 5.53% | EN activity, percent of no inhibitor control ([4]; [Inhibitor] 250 μM, technical replicates 1-3, Fig. 2b source data, 250 µM): 1.937% and 2.743% | remaining activity at 250 µM ([4]; [Inhibitor] 250 μM, technical replicates 1-3, Fig. 2b source data, read-out: EN activity, percent of no inhibitor control): 2.22% | EN activity, percent of no inhibitor control ([4]; [Inhibitor] 500 μM, technical replicates 1-3, Fig. 2b source data, 500 µM): 1.591% and 1.804% and 0.7296% | PrestoBlue (viability), average ([5]; 48 h, 50 μM): 15.21 | Nuclei comet tail length, average (WT = 1) ([6]; 50 μM inhibitor, EN domain-only construct, neutral comet assay, normalised to WT): 0.4772
